Results published in patent US11506670B2, “Method of genome-wide direct identification of electrophile-sensing targets” (Cornell University, priority 2018, dated 2022).

Columns and labels:
Ube2N = molecular target: T1, Ube2N (Homo sapiens, UniProt P61088); test: Biotin azide/streptavidin pulldown of HNEylated proteins from mammalian lysate; assay type: cell-based; details: HEK293T, Halo-(FLAG)-Ube2V2 and HA-Ube2N
T1 construct: expressed in transfected cells; host or cells: HEK 293T
Description: HEK 293T cells were seeded in 60 cm^2 plate. After the cells reached 60% confluence (˜18-24 h), the old media were replaced with fresh 8 mL complete media. Cells were transfected with 7.5 μg of the designated plasmids encoding the HaloTag fusion gene and 30 μL PEI (1 mg/mL) in 600 μL in Opti-MEM media for 24-36 h after which the cells were treated with 25 μM Ht-PreHNE or without alkyne (control) for 2.5 h. Rinsing and light shining protocol were as described above. Cells were harvested, washed twice with chilled 1× DPBS and flash frozen.
Mammalian cell lysis was performed in 200 μL of lysis buffer containing in final concentrations 50 mM HEPES (pH 7.6), 150 mM NaCl, 1% Nonidet P-40 and 1× Roche cOmplete, mini, EDTA-free protease inhibitor cocktail by rapid freeze-thaw (×3). Lysate was clarified by centrifugation at 18,000×g for 30 min at 4° C.
Total protein concentration from either mammalian cell lysate or zebrafish lysate was determined using Bradford assay with BSA as standard. The lysate was subsequently diluted to 2 mg/mL with a buffer made up of 50 mM HEPES (pH 7.6) and 0.3 mM TCEP, and subjected to Click reaction with biotin azide for 30 min at 37° C. The final concentrations of each components were: 1% SDS, 5% t-BuOH, 200 μM Biotin azide, 2 mM TCEP, 0.9 mM CuSO4 and 0.1 mM Cu(TBTA). The lysate proteins were precipitated by adding 4 volumes of EtOH pre-chilled at −20° C. […]

PTEN = molecular target: T2, PTEN (Homo sapiens, UniProt P60484); test: Immunofluorescence of endogenous PIP3 after PTEN-targeted T-REX; assay type: cell-based; details: T-REX HNEylation of Halo-PTEN
T2 construct: host or cells: HEK-293
T2 sequence (P60484 whole entry): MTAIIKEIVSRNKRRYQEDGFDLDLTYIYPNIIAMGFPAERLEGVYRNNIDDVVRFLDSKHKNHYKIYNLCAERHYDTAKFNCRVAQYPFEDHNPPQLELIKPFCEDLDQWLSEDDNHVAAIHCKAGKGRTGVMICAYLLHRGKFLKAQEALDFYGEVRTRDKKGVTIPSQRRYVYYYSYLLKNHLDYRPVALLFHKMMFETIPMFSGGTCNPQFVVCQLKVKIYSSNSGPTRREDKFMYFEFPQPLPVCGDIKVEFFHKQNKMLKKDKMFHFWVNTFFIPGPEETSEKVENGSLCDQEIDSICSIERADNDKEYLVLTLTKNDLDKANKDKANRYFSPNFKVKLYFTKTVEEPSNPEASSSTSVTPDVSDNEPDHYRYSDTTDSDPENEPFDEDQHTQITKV
Description: (i) Transient transfection using TransIT-2020. Split HEK-293 cells in four 35 mm glass-bottom dishes. For each dish, seeding ˜4×10^5 cells in 2.0 mL total cell culture medium should result in cells that are ˜40-50% confluent after 24 h, which represents optimal cell density. Too low and too high cell density may result in excessive cell death or poor transfection efficiency respectively. Higher cell density is also not optimal for imaging.
(ii) Transfect each plate with 2000 ng of Halo-PTEN plasmid. Transfect with TransIT-2020 following the manufacturer's protocol.
(iv) Treatment of cells with T-REX™ delivery photocaged precursor, photo-uncaging and cell fixing (TIMING: 8 hours). Treat the cells with photocaged precursor as described in Section 2, Step 39A.
(v) After shining light on the sample, incubate the plates at 37° C. for 10 hours. […]
(xviii) Images were analyzed using ImageJ software (NIH). Briefly, the average green fluorescence intensity (intensity of signal due to PIP3) for each cell was determined by drawing a free hand circle around the image. This was repeated for each condition such that 50-100 cells were analyzed each time from multiple different frames. A global average of the green fluorescence intensity was calculated for each condition, then these values were plotted and analyzed using prism. […]

NF-κB-signaling (Ube2V2) = test: NF-κB dual luciferase reporter assay after T-REX on Halo-Ube2V2; assay type: cell-based, human; details: T-REX HNEylation of Ube2V2 in place of Ube2V1
Description: (§1) 1.5-1.6×10^5 HEK 293T cells were seeded in each well of a 48-well plate. 24 h later, the cells were transfected with 120 ng of the designated HaloTag fusion gene plasmid and 120 ng of NF-kB-Firefly luciferase: pCMV-Renilla luciferase (40:1) mix, using TransIT-2020 transfection agent. 24 h post-transfection, cells were treated with 25 μM Ht-PreHNE or vehicle (corresponding volume of DMSO alone) for 2.5 h, rinsed three times and irradiated with 365 nm UV light for 10 min. The cells were incubated for a further 8 h. For dual luciferase assay, cells in each well were gently washed with 1×DPBS and lysed in 65 μL of 1× passive lysis buffer containing in final concentrations 25 mM Tris (pH 7.8), 2 mM 1,2-CDTA, 2 mM DTT, 1 mg/mL BSA, 1% Triton X-100, and 10% Glycerol. 20 μL of the lysate was transferred to a white opaque 96-well plate (Corning). Firefly luciferase was read after adding 50 μL Firefly substrate (75 mM HEPES pH 8.0, 4 mM MgSO4, 20 mM DTT, 0.1 mM EDTA, 0.53 mM ATP, 0.27 mM Coenzyme-A, 0.47 mM D-Luciferin Firefly). Subsequently, 50 μL of Stop and Glow substrate (7.5 mM sodium acetate pH 5.0, 400 mM sodium sulfate, 10 mM CDTA, 15 mM sodium pyrophosphate, 0.025 mM APMBT, 5.5 μM Coelenterazine) was added and Renilla luciferase activity was measured.

NF-κB-signaling (Ube2V1) = test: NF-κB dual luciferase reporter assay after T-REX on Halo-Ube2V1; assay type: cell-based, human; details: T-REX HNEylation of Ube2V1, coexpression of Ube2N
Description: as §1

T1 sequence (P61088 whole entry): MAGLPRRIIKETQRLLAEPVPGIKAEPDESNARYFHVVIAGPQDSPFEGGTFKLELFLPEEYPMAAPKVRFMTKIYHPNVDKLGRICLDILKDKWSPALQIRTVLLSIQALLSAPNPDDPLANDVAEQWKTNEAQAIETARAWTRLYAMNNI
T1 sequence (Q15819 whole entry partner): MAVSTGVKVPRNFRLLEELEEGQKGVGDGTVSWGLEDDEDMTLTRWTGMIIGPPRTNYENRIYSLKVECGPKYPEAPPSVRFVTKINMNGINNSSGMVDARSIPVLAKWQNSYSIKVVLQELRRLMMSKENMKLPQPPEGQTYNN

CCCCCC(O)/C=C/C=O (stereo not shown) [HNE, 4-hydroxynonenal]
HNEylation of Ube2N during T-REX delivery to Ube2V2 (affinity capture) (Ube2N): no detectable HNEylation of Ube2N | endogenous PIP3 level (PTEN): upregulation of PIP3 | NF-κB-pathway activation (NF-κB-signaling (Ube2V2)): did not result in NF-κB-pathway activation | upregulation in NF-κB-signaling relative to all controls (NF-κB-signaling (Ube2V1)): 3 fold
